Reference: US11229664B2, “Treatment of myelosuppression” (priority 2012, dated 2022)
“And” between values parts separate entries of the source, which are not always exact repeats. Equal values may be shown once.

What was measured:
anti-thrombin III = anti-thrombin III (Homo sapiens, UniProt P01008); conditions: cited from earlier work
clotting time (aPTT) = test: aPTT assay, clotting time after administration to a subject; format: in vivo; conditions: administered to a subject at a (dose equivalent to a) fully-anticoagulating dose of unfractionated heparin; normal about 27 to 35 seconds
Description: In various preferred embodiments, the PF4-interacting heparinoid is substantially nonanticoagulant. Anti-coagulation activity can be determined using assays known in the art, e.g., activated partial thromboplastin time (aPTT), prothrombin time, anti-Xa clotting and amidolytic assays. See, e.g., U.S. Pat. No. 5,668,118, Example IV; Fryer et al., 1997, J. Pharmacol. Exp. Ther. 282: 208-219, at page 209; Rao et al., 2010, Am. J. Physiol. 299:C97-C110, at page C98; United States Pharmacopeial Convention 1995 (for USP anticoagulant assay and amidolytic assay).
In contrast to unfractionated heparin, ODSH is substantially non-anticoagulating: administered to a subject at a dose that is equivalent to a fully-anticoagulating dose of unfractionated heparin, the clotting time measured in an aPTT assay is no greater than 45 seconds, and typically in the upper range of normal, where normal clotting time ranges from about 27 to 35 seconds. By comparison, unfractionated heparin administered to a subject at a fully anticoagulant dose causes time to clot to range from about 60 to about 85 seconds in an aPTT assay. Another measure of ODSH's anticoagulant activity is its anti-Xa activity which can be determined in an assay carried out using plasma treated with Russell viper venom. […] Whether or not a heparinoid is substantially non-anticoagulating can be determined using any of the above assays.

[1] = tested on: BxPC-3 pancreas tumor cell line; test: BxPC-3 human pancreas tumor xenograft model: tumor weight, tumor growth inhibition (TGI); format: in vivo, female athymic nude mice; conditions: for Tumor weight, Mean / Tumor weight, Median / Tumor weight, individual mice: Group 2: ODSH 24 mg/kg BID, IV Days 1-11, SC Days 12-end
Description: Compounds tested in the experiment were as follows. ODSH was made by Pyramid Laboratories, Inc. (Costa Mesa, Calif.). ODSH was provided at a stock concentration of 50 mg/ml and stored at room temperature until use. ODSH was diluted in a 0.9% NaCl solution (B. Braun Medical Inc., Irvine, Calif.) to a concentration of 2.4 mg/ml to deliver 24 mg/kg, in a 10 ml/kg dose volume when administered intravenously. A concentration of 4.8 mg/ml was formulated to deliver a 24 mg/kg dose at a 5 ml/kg dose volume when administered subcutaneously. ODSH was formulated fresh prior to each dose.
Nab-paclitaxel was manufactured by Abraxis BioScience LLC (Bridgewater, N.J.) and diluted in a 0.9% NaCl solution to a concentration of 1.5 mg/ml to deliver 15 mg/kg, in a 10 ml/kg dose volume. All standard agent preparations were made fresh prior to their administration.
BxPC-3 cells were obtained and prepared as follows. The BxPC-3 pancreas tumor cell line was received from American Type Culture Collection (ATCC, Manassas, Va.). Cultures were maintained in RPMI 1640 medium (Hyclone, Logan, Utah) supplemented with 5% fetal bovine serum. The cells were housed in a 5% CO2 atmosphere. The cultures were expanded in tissue culture flasks at a 1:3 split ratio until a sufficient amount of cells were harvested.
BxPC-3 Human Pancreas Tumor Xenograft Model: Female athymic nude mice per treatment condition were inoculated subcutaneously in the right flank with 0.1 ml of a 50% RPMI 1640/50% Matrigel™ (BD Biosciences, Bedford, Mass.) mixture containing a suspension of BxPC-3 tumor cells (approximately 5×10^6 cells/mouse).
Study Director V.1.7.54k (Study Log).
Mean tumor growth inhibition (TGI) was calculated utilizing Formula A below (deaths were not included in the TGI calculations).
All statistical analyses in the xenograft study were performed with GraphPad Prism® v4 software.

[2] = format: in vivo, human
Description: Treatment consisted of a series of 28-day cycles, wherein the last day of one cycle (e.g., day 28, cycle 1) was immediately followed by the first day of the next cycle (e.g., day 1, cycle 2). In each 28-day treatment cycle, patients were dosed at days 1, 8, and 15 (three weeks of medication followed by one week of rest) as follows. First, nab-paclitaxel at 125 mg/m^2 was administered as an intravenous infusion over 30 minutes. […] Nab-paclitaxel and gemcitabine therapy was given as described in the prescribing information for Abraxane® and Gemzar®. See also, Von Hoff et al., 2011, J. Clinical Oncology 29:1-7).
As a substantially non-anticoagulant heparinoid, ODSH can be administered at a dose that is greater than the fully anticoagulant dose of unfractionated heparin, without concern for anticoagulant effect, as shown in the Results below.

[3] = ANOVA with Tukey's Multiple Comparison Test, BxPC-3 xenograft

anti-thrombin III, sequence (P01008 33-464, species assumed): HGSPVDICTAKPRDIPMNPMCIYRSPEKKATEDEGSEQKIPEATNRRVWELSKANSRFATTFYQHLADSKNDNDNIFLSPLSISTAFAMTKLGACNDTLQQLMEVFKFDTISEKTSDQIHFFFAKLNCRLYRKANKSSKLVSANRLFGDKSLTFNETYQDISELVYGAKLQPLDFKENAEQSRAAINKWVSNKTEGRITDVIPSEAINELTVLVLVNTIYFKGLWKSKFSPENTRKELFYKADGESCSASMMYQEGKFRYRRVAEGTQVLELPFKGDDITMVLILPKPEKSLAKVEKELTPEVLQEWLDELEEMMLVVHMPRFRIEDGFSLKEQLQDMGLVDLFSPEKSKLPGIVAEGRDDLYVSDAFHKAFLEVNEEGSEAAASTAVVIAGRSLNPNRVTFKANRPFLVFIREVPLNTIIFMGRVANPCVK

Substance: substantially 2-O, 3-O desulfated heparin [ODSH]
- Kd, affinity for anti-thrombin III (anti-thrombin III): ~4000 µg/mL
- Kd (anti-thrombin III; read-out: Kd, affinity for anti-thrombin III): ~339 µM
- Clotting time in aPTT assay (clotting time (aPTT)): ≤ 45 s
- Difference in tumor weight compared to vehicle control, Day 26 [1, 3]: No significant difference
- Difference in tumor weight compared to vehicle control, Day 36 [1, 3]: significant difference
- Tumor weight, Mean ([1]; Day 1): 122.4 mg
- Tumor weight, Median ([1]; Day 1): 22.9 mg
- Tumor weight, individual mice ([1]; Day 1): 114 mg and 116 mg and 172 mg and 94 mg and 131 mg and 106 mg and 125 mg and 143 mg and 129 mg and 140 mg
- Tumor weight, Mean ([1]; Day 4): 134.0 mg
- Tumor weight, Median ([1]; Day 4): 28.6 mg
- Tumor weight, individual mice ([1]; Day 4): 98 mg and 110 mg and 141 mg and 97 mg and 181 mg and 135 mg and 130 mg and 144 mg and 133 mg
- Tumor weight, Mean ([1]; Day 8): 146.0 mg
- Tumor weight, Median ([1]; Day 8): 40.4 mg
- Tumor weight, individual mice ([1]; Day 8): 118 mg and 144 mg and 183 mg and 125 mg and 222 mg and 126 mg and 155 mg and 157 mg and 148 mg
- Tumor weight, Mean ([1]; Day 11): 187.6 mg
- Tumor weight, Median ([1]; Day 11): 162.1 mg
- Tumor weight, individual mice ([1]; Day 11): 288 mg and 142 mg and 175 mg and 243 mg and 146 mg and 252 mg and 137 mg and 140 mg and 203 mg
- Tumor weight, Mean ([1]; Day 15): 263.0 mg
- Tumor weight, Median ([1]; Day 15): 250.0 mg
- Tumor weight, individual mice ([1]; Day 15): 340 mg and 224 mg and 263 mg and 348 mg and 237 mg and 321 mg and 208 mg and 218 mg and 264 mg
- Tumor weight, Mean ([1]; Day 18): 338.5 mg
- Tumor weight, Median ([1]; Day 18): 304.7 mg
- Tumor weight, individual mice ([1]; Day 18): 489 mg and 291 mg and 288 mg and 419 mg and 256 mg and 415 mg and 318 mg and 278 mg and 352 mg
- Tumor weight, Mean ([1]; Day 22): 453.8 mg
- Tumor weight, Median ([1]; Day 22): 425.4 mg
- Tumor weight, individual mice ([1]; Day 22): 622 mg and 360 mg and 400 mg and 556 mg and 402 mg and 551 mg and 449 mg and 326 mg and 515 mg
- Tumor weight, Mean ([1]; Day 26): 616.2 mg
- Tumor weight, Median ([1]; Day 26): 551.3 mg
- Tumor weight, individual mice ([1]; Day 26): 894 mg and 478 mg and 529 mg and 770 mg and 573 mg and 724 mg and 524 mg and 394 mg and 766 mg
- TGI (mean tumor growth inhibition), Day 26 ([1]; Day 26 vs Day 1, compared to vehicle control, BxPC-3 xenograft, ODSH 24 mg/kg BID, oxaliplatin 10 mg/kg, gemcitabine 80 mg/kg (Table 1)): 11.5%
- Tumor weight, Mean ([1]; Day 30): 882.3 mg
- Tumor weight, Median ([1]; Day 30): 856.4 mg
- Tumor weight, individual mice ([1]; Day 30): 1,083 mg and 756 mg and 893 mg and 1,201 mg and 820 mg and 945 mg and 764 mg and 555 mg and 1,109 mg
- Tumor weight, Mean ([1]; Day 33): 1,038.6 mg
- Tumor weight, Median ([1]; Day 33): 979.8 mg
- Tumor weight, individual mice ([1]; Day 33): 1,218 mg and 999 mg and 961 mg (2×) and 1,309 mg and 1,087 mg and 871 mg and 733 mg and 1,340 mg
- Tumor weight, Median ([1]; Day 36): 1,151.5 mg
- Tumor weight, individual mice ([1]; Day 36): 1,450 mg and 1,153 mg and 1,150 mg (2×) and 1,654 mg and 1,376 mg and 1,037 mg and 836 mg and 1,823 mg
- TGI (mean tumor growth inhibition), Day 36 ([1]; Day 36 vs Day 1, compared to vehicle control, BxPC-3 xenograft, ODSH 24 mg/kg BID, oxaliplatin 10 mg/kg, gemcitabine 80 mg/kg, nab-paclitaxel 15 mg/kg (Table 1)): 18.2%
- Day 26 Tumor Weight ([1]; Table 14, treatment administered until Day 26): 616.2 ± 50.9 mg
- Day 26 Tumor Weight ([1]; Table 15, treatment administered until Day 35): 1270.1 ± 95.5 mg
- Effect on patient weight ([2]; ODSH adjunct to gemcitabine/nab-paclitaxel): minimum weight loss or even some weight gain
- Weight ([2]; individual patients, ODSH adjunctive to gemcitabine and nab-paclitaxel, Cycle 6 Day 1): 176 pounds and 133 pounds and 157 pounds
